Test system: blood glucose
Test: Postprandial blood glucose pharmacodynamics after meal bolus, 3-day ID vs SC infusion
Type: in vivo, human (T1DM patients)
Details: SC; for BGavg0–1 / BGmax0–1 / ΔAUC-BG0–1 / ΔBGmax0–1 / BGavg0–1.5 / BGmax0–1.5 / ΔAUC-BG0–1.5 / ΔBGmax0–1.5 / BGavg0–2 / BGmax0–2 / ΔAUC-BG0–2 / ΔBGmax0–2 / BGavg0–4 / BGmax0–4 / ΔAUC-BG0–4 / ΔBGmax0–4 / BG1 / ΔBG1 / BG1.5 / ΔBG1.5 / BG2 / ΔBG2 / BG4 / ΔBG4: mean ± SD; for BG1 / ΔBG1: at 1 h; for BG1.5 / ΔBG1.5: at 1.5 h; for BG2 / ΔBG2: at 2 h; for BG4 / ΔBG4: at 4 h
Source text: This was a single center, open-label, two-period crossover study, randomized by infusion order, in T1DM patients on continuous subcutaneous insulin infusion (CSII). The protocol was approved by an independent ethics committee (Ethikkommission der Ärztekammer Nordrhein, Düsseldorf, Germany), appropriate regulatory bodies (German Federal Institute for Drugs and Medical Devices (BfArM)), and conducted in compliance with good clinical practice (GCP), the Declaration of Helsinki, and applicable regulatory requirements.
The study was completed over a multi-week period consisting of three study visits: a screening visit (V1) and two interventional visits (V2 and V3). After establishing eligibility and enrollment, patients received treatment during two interventional visits: one SC and one ID basal/bolus infusion of insulin aspart (NovoRapid® U-100, Novo Nordisk, Copenhagen, Denmark) administered over 3 days in a randomized order.
Individual meal bolus doses were determined based on patient self-reported insulin to carbohydrate ratios and insulin sensitivity, historical self-reported insulin usage for meal coverage, and clinician review and adjustment of insulin usage during the in-clinic BG stabilization period the evening prior to the first morning meal. Basal insulin infusion rates were initiated based on the patient’s known daily delivery profile and could be adjusted by the clinician to maintain levels within 70–160 mg/dL according to a predetermined sliding scale and hourly changes in glycemia. A continuous glucose monitor (Seven Plus®, DexCom Inc., San Diego, CA) calibrated per manufacturer’s recommendations was applied to continuously monitor glycemia as a safety measure, in addition to periodic blood sampling for BG determination.
After maintaining targeted blood glucose range during the preceding night, bolus insulin doses were administered via the respective infusion catheter prior to standardized breakfast and lunch test meals on each of the three treatment days. Each meal insulin bolus was calculated based on the patient’s insulin sensitivity and previous hours change in BG per sliding scale then delivered immediately prior to breakfast (t = 0 min) and lunch (t = 360 min) consumption. Breakfast was a high glycemic index (60 g carbohydrates) solid meal, and lunch was a mixed meal based on the individual’s calculated daily energy intake and equivalent in caloric composition by day. Breakfast and lunch meals were consumed within 15 min followed by serial blood sampling with BG monitoring for a period of 6 and 4 h, respectively. Patients were asked to remain sedentary for 2 h after meals. Identical study procedures were utilized for the remaining dosing visit days (Fig. 2).
To assess insulin absorption kinetics and glycemic response, blood samples for measurements of insulin aspart and blood glucose in serum were drawn at predefined time points throughout dosing visits. Serial samples for safety BG determination, but not PK analysis, were obtained at a minimum every 2 h. Meal PK/PD analysis samples were acquired immediately pre-bolus and for 4–6 h post-bolus for breakfast and lunch meals, with a higher frequency during the first 2 h to capture insulin and BG peak levels {Post-bolus breakfast time points (min): 0, 10, 15, 20, 25, 30, 35, 40, 45, 50, 55, 60, 65, 70, 80, 90, 120, 150, 180, 210, 240, 300, 330, 360; Post-bolus lunch time points (min): 0, 10, 20, 30, 40, 50, 60, 70, 80, 90, 120, 180, 240, 300}. Sampling times were based on previous clinical study experience for bolus microneedle insulin delivery and had increased sampling frequency in the first 90 min post-delivery to capture the rapid insulin peaks from microneedle ID delivery. Blood samples for evening meal and basal period PK assessment could not be obtained due to daily blood draw volume limits for patient safety. Serum insulin aspart was measured by a third party laboratory (IKFE GmbH, Mainz, Germany) using a validated insulin assay (Invitron ELISA kit). […]

[1] = 0–1 h, Days 1–3 combined, all test meals, n = 150–156
[2] = 0–1 h, across all study days and meals
[3] = 0–1.5 h, Days 1–3 combined, all test meals, n = 150–156
[4] = 0–1.5 h, across all study days and meals
[5] = 0–2 h, Days 1–3 combined, all test meals, n = 150–156
[6] = 0–2 h, across all study days and meals
[7] = 0–4 h, Days 1–3 combined, all test meals, n = 150–156
[8] = Days 1–3 combined, all test meals, n = 150–156

With insulin aspart the “BG at 1 h” value was 165, the “BGavg0–1” value (0–1 h, Day 1, across meals) was 138 ± 33.4 mg/dL and the “BGmax0–1” value (0–1 h, Day 1, across meals) was 166 ± 40.1 mg/dL. The “ΔAUC-BG0–1” value (0–1 h, Day 1, across meals) was 29.1 ± 25.7 mg·h/dL, the “ΔBGmax0–1” value (0–1 h, Day 1, across meals) was 57.1 ± 36.0 mg/dL and the “BGavg0–1” value (0–1 h, Day 2, across meals) was 147 ± 32.5 mg/dL. For the same substance, the “BGmax0–1” value (0–1 h, Day 2, across meals) was 176 ± 39.2 mg/dL, the “ΔAUC-BG0–1” value (0–1 h, Day 2, across meals) was 26.7 ± 20.9 mg·h/dL and the “ΔBGmax0–1” value (0–1 h, Day 2, across meals) was 55.8 ± 31.0 mg/dL. For the same substance, the “BGavg0–1” value (0–1 h, Day 3, across meals) was 145 ± 30.3 mg/dL, the “BGmax0–1” value (0–1 h, Day 3, across meals) was 175 ± 37.9 mg/dL and the “ΔAUC-BG0–1” value (0–1 h, Day 3, across meals) was 26.5 ± 19.5 mg·h/dL. For the same substance, the “ΔBGmax0–1” value (0–1 h, Day 3, across meals) was 57.2 ± 33.0 mg/dL, the “BGavg0–1” value [1] was 143 ± 32.2 mg/dL and the “BGmax0–1” value [1] was 172 ± 39.2 mg/dL. For the same substance, the “ΔAUC-BG0–1” value [1] was 27.5 ± 22.2 mg·h/dL, the “ΔBGmax0–1” value [1] was 56.7 ± 33.3 mg/dL and the “Intra-subject variability of BGavg” value [2] was 18.2 %CV. The “Intra-subject variability of BGmax” value [2] was 18.1 %CV, the “BGavg0–1.5” value (0–1.5 h, Day 1, across meals) was 144 ± 36.0 mg/dL and the “BGmax0–1.5” value (0–1.5 h, Day 1, across meals) was 174 ± 43.6 mg/dL. The “ΔAUC-BG0–1.5” value (0–1.5 h, Day 1, across meals) was 53.4 ± 46.7 mg·h/dL, the “ΔBGmax0–1.5” value (0–1.5 h, Day 1, across meals) was 65.0 ± 42.3 mg/dL and the “BGavg0–1.5” value (0–1.5 h, Day 2, across meals) was 154 ± 35.3 mg/dL. The “BGmax0–1.5” value (0–1.5 h, Day 2, across meals) was 182 ± 41.7 mg/dL, the “ΔAUC-BG0–1.5” value (0–1.5 h, Day 2, across meals) was 50.8 ± 40.9 mg·h/dL and the “ΔBGmax0–1.5” value (0–1.5 h, Day 2, across meals) was 61.6 ± 33.2 mg/dL. For the same substance, the “BGavg0–1.5” value (0–1.5 h, Day 3, across meals) was 152 ± 33.4 mg/dL, the “BGmax0–1.5” value (0–1.5 h, Day 3, across meals) was 182 ± 40.0 mg/dL and the “ΔAUC-BG0–1.5” value (0–1.5 h, Day 3, across meals) was 51.3 ± 39.8 mg·h/dL. For the same substance, the “ΔBGmax0–1.5” value (0–1.5 h, Day 3, across meals) was 63.9 ± 36.8 mg/dL, the “BGavg0–1.5” value [3] was 150 ± 35.0 mg/dL and the “BGmax0–1.5” value [3] was 179 ± 41.8 mg/dL. For the same substance, the “ΔAUC-BG0–1.5” value [3] was 51.9 ± 42.5 mg·h/dL, the “ΔBGmax0–1.5” value [3] was 63.6 ± 37.6 mg/dL and the “Intra-subject variability of BGavg” value [4] was 18.2 %CV. For the same substance, the “Intra-subject variability of BGmax” value [4] was 17.9 %CV, the “BGavg0–2” value (0–2 h, Day 1, across meals) was 147 ± 39.3 mg/dL and the “BGmax0–2” value (0–2 h, Day 1, across meals) was 178 ± 49.1 mg/dL. The “ΔAUC-BG0–2” value (0–2 h, Day 1, across meals) was 77.0 ± 73.2 mg·h/dL, the “ΔBGmax0–2” value (0–2 h, Day 1, across meals) was 69.7 ± 49.0 mg/dL and the “BGavg0–2” value (0–2 h, Day 2, across meals) was 157 ± 38.2 mg/dL. For the same substance, the “BGmax0–2” value (0–2 h, Day 2, across meals) was 186 ± 43.4 mg/dL, the “ΔAUC-BG0–2” value (0–2 h, Day 2, across meals) was 73.6 ± 63.3 mg·h/dL and the “ΔBGmax0–2” value (0–2 h, Day 2, across meals) was 65.5 ± 34.7 mg/dL. For the same substance, the “BGavg0–2” value (0–2 h, Day 3, across meals) was 155 ± 36.1 mg/dL, the “BGmax0–2” value (0–2 h, Day 3, across meals) was 186 ± 42.4 mg/dL and the “ΔAUC-BG0–2” value (0–2 h, Day 3, across meals) was 75.1 ± 63.0 mg·h/dL. For the same substance, the “ΔBGmax0–2” value (0–2 h, Day 3, across meals) was 68.1 ± 40.3 mg/dL, the “BGavg0–2” value [5] was 153 ± 38.0 mg/dL and the “BGmax0–2” value [5] was 183 ± 45.1 mg/dL. The “ΔAUC-BG0–2” value [5] was 75.3 ± 66.5 mg·h/dL, the “ΔBGmax0–2” value [5] was 67.8 ± 41.8 mg/dL and the “Intra-subject variability of BGavg” value [6] was 19.3 %CV. For the same substance, the “Intra-subject variability of BGmax” value [6] was 18.5 %CV, the “BGavg0–4” value (0–4 h, Day 1, across meals) was 142 ± 41.2 mg/dL and the “BGmax0–4” value (0–4 h, Day 1, across meals) was 179 ± 44.4 mg/dL. The “ΔAUC-BG0–4” value (0–4 h, Day 1, across meals) was 133 ± 160 mg·h/dL, the “ΔBGmax0–4” value (0–4 h, Day 1, across meals) was 76.5 ± 54.6 mg/dL and the “BGavg0–4” value (0–4 h, Day 2, across meals) was 155 ± 44.0 mg/dL. For the same substance, the “BGmax0–4” value (0–4 h, Day 2, across meals) was 193 ± 49.3 mg/dL, the “ΔAUC-BG0–4” value (0–4 h, Day 2, across meals) was 140 ± 157 mg·h/dL and the “ΔBGmax0–4” value (0–4 h, Day 2, across meals) was 72.3 ± 40.0 mg/dL. The “BGavg0–4” value (0–4 h, Day 3, across meals) was 156 ± 40.1 mg/dL, the “BGmax0–4” value (0–4 h, Day 3, across meals) was 194 ± 41.7 mg/dL and the “ΔAUC-BG0–4” value (0–4 h, Day 3, across meals) was 154 ± 148 mg·h/dL. For the same substance, the “ΔBGmax0–4” value (0–4 h, Day 3, across meals) was 76.2 ± 40.4 mg/dL, the “BGavg0–4” value [7] was 151 ± 42.0 mg/dL and the “BGmax0–4” value [7] was 188 ± 45.4 mg/dL. For the same substance, the “ΔAUC-BG0–4” value [7] was 142 ± 155 mg·h/dL, the “ΔBGmax0–4” value [7] was 75.0 ± 45.6 mg/dL and the “Intra-subject variability of BGmax” value (0–4 h, across all study days and meals) was 18.0 %CV. It also gave a BG1 (Day 1, across meals) of 158 ± 43.8 mg/dL, a ΔBG1 (Day 1, across meals) of 49.0 ± 41.5 mg/dL and a BG1 (Day 2, across meals) of 169 ± 40.9 mg/dL. For the same substance, the ΔBG1 (Day 2, across meals) was 48.8 ± 37.9 mg/dL, the BG1 (Day 3, across meals) was 170 ± 40.9 mg/dL and the ΔBG1 (Day 3, across meals) was 51.8 ± 37.9 mg/dL. The BG1 [8] was 165 ± 42.1 mg/dL, the ΔBG1 [8] was 49.8 ± 39.0 mg/dL and the BG1.5 (Day 1, across meals) was 156 ± 51.2 mg/dL. For the same substance, the ΔBG1.5 (Day 1, across meals) was 47.5 ± 51.9 mg/dL, the BG1.5 (Day 2, across meals) was 167 ± 48.3 mg/dL and the ΔBG1.5 (Day 2, across meals) was 47.2 ± 44.8 mg/dL. For the same substance, the BG1.5 (Day 3, across meals) was 167 ± 48.3 mg/dL, the ΔBG1.5 (Day 3, across meals) was 48.9 ± 48.1 mg/dL and the BG1.5 [8] was 163 ± 49.3 mg/dL. For the same substance, the ΔBG1.5 [8] was 47.9 ± 48.2 mg/dL, the BG2 (Day 1, across meals) was 152 ± 60.1 mg/dL and the ΔBG2 (Day 1, across meals) was 43.7 ± 62.7 mg/dL. It also gave a BG2 (Day 2, across meals) of 164 ± 54.2 mg/dL, a ΔBG2 (Day 2, across meals) of 44.0 ± 51.2 mg/dL and a BG2 (Day 3, across meals) of 164 ± 52.3 mg/dL. For the same substance, the ΔBG2 (Day 3, across meals) was 46.2 ± 52.4 mg/dL, the BG2 [8] was 160 ± 55.7 mg/dL and the ΔBG2 [8] was 44.6 ± 55.6 mg/dL. It also gave a BG4 (Day 1, across meals) of 139 ± 52.4 mg/dL, a ΔBG4 (Day 1, across meals) of 29.7 ± 53.3 mg/dL and a BG4 (Day 2, across meals) of 148 ± 59.4 mg/dL. For the same substance, the ΔBG4 (Day 2, across meals) was 27.7 ± 56.8 mg/dL, the BG4 (Day 3, across meals) was 153 ± 48.9 mg/dL and the ΔBG4 (Day 3, across meals) was 35.1 ± 47.2 mg/dL. The BG4 [8] was 146 ± 53.7 mg/dL, the ΔBG4 [8] was 30.8 ± 52.3 mg/dL and the “Intra-subject variability of BG” value (time 1 h, across all study days and meals) was 20.2 %CV. For the same substance, the “Intra-subject variability of BG” value (time 1.5 h, across all study days and meals) was 24.5 %CV and the “Intra-subject variability of ΔBG” value (time 2 h, across all study days and meals) was 61.4 %CV.

Source: PMC4529466, “Intradermal insulin infusion achieves faster insulin action than subcutaneous infusion for 3-day wear” (Drug Delivery and Translational Research, 2015)
